Measurements reported in US20080311185A1, “Deregulated Genes and/or Processes in Inflammatory Arthritis” (priority 2005, published 2008).
Starred links: 1 amine or outer side, 2 acyl side, 3 side chain; linkers in the order of their positions; H or OH if unused. Positions of bridges follow the written chain, without caps; N, C: chain ends. Non-standard residues stand in square brackets, D forms with d. Residues, ends and D or L forms follow the SMILES beside them. Trp(2-yl) = O=C([C@H](Cc1c([*:3])[nH]c2ccccc12)N[*:1])[*:2]; Leu(4R-OH,5-OH) = C[C@](O)(CO)C[C@H](N)C(=O)O; cisHyp = O=C(O)[C@@H]1C[C@H](O)CN1

Tests used:
[1] = system: Tg197 synovial fibroblasts; assay: Proliferation assay of Tg197 synovial fibroblasts after drug treatment; type: cell-based, mouse; conditions: FIG. 9
Method: FIG. 7. […] Mean averages of triplicates with mean background (adhesion to BSA) values subtracted. Representative experiment out of three (t-test; P<0.05). (C) DNA synthesis/proliferation assay in the presence or absence of 10% FBS, 48 h after treatment. Values represent [3H]Thymidine incorporation (×10^3). Mean average of triplicates (t test; P<0.05). (D) Assay of wound-healing treated with Mytomycin C for 2 h. Pictures were taken at Oh and 24 h after the wound (Oh not shown). (E) TNF cytotoxicity assay with cyclohexamide. After 24 h survival was determined using the crystal violet assay. (F) Apoptosis assay using 30-300 μM etoposide. (G) Apoptosis assay using 0.01-1 μM staurosporine.
(§1) Disruption of actin cytoskeleton was induced with 4 μg/ml of Latrunculin A (Sigma) for 2 h at 37° C. as previously described (Spector et al, 1989). As control of TNFα involvement in actin-cytoskeleton organisation 1 μg/ml of anti-TNF (Infliximab) was added on the cells for the same period of time.

HeLa cells = conditions: Kulms et al, 2002; cited from earlier work
[2] = system: Tg197 synovial fibroblasts; assay: Apoptosis assay using staurosporine as inducer of cell death; type: cell-based, mouse; conditions: FIG. 10
Method: Confluent mouse synovial fibroblasts were washed twice with phosphate-buffered saline (PBS) and placed in DMEM without serum for 24 h. The following day 1.5×10^4 cells were plated into each well of a 96-well flat-bottom plate (Costar, Corning Inc.) in 100 μl of media plus serum. After 24 h, cells were treated with 12.5-100 ng/ml TNFα plus 0.5-3 μg/ml cyclohexamide (CHX), 30-300 μM Etoposide and 0.01-1 μM Staurosporine, for 24 h at 37° C. overnight. Cell survival was determined using the crystal violet assay. The absorbance at 570 nm was determined on a microplate reader (SPECTRAmax PLUS^384, Molecular Devices, Sunnyvale, Calif., USA), as previously described (Aidinis et al, 2003). Results are expressed as the means±S.E. of one representative experiment performed in triplicate. Statistical analysis was performed using Student's t test, with a level of significance set at p<0.05.
as §1

[3] = system: Tg197 synovial fibroblasts; assay: Adhesion assay of Tg197 synovial fibroblasts after drug treatment; type: cell-based, mouse; conditions: drug treatment 2 h at 37° C., FIG. 8
Method: (§2) FIG. 8. Adhesion/Migration assays showing the effect of Lat-A on Tg197 actin-cytoskeleton properties.
Adhesion assays were performed on Cytometrix adhesion strips (Chemicon) coated with human fibronectin, vitronectin, laminin and collagen I, according to the manufacturer instructions.
as §1

[4] = system: Tg197 synovial fibroblasts; assay: Migration assay of Tg197 synovial fibroblasts after drug treatment; type: cell-based, mouse; conditions: drug treatment 2 h at 37° C., compare to Wt, FIG. 8
Method: as §2, §1

Compound | proliferation levels of TgSFs [1] | apoptosis in HeLa cells (HeLa cells) | resistance to apoptosis [2] | adhesion of TgSF's [3] | migration of TgSF's [4]
TNFα | do not have an effect | – | – | – | –
C[C@@H]1NC(=O)[C@H](C[C@@](C)(O)CO)NC(=O)[C@@H]2Cc3c([nH]c4ccccc34)SC[C@H](NC(=O)[C@@H]([C@H](C)O)NC1=O)C(=O)N1C[C@@H](O)C[C@H]1C(=O)N[C@@H](C)C(=O)N2 [phalloidin] (cyclo(A[dT]C[cisHyp]A[Trp(2-yl)][Leu(4R-OH,5-OH)]); thioether 3-6) | – | does not affect apoptosis | – | – | –
C/C1=C/C(=O)O[C@@H]2C[C@@H](CC[C@H](C)/C=C\C=C\CC1)O[C@@](O)([C@@H]1CSC(=O)N1)C2 [Lat-A, Latrunculin A] | decline lower even than the levels of WtSFs | – | decreased resistance to apoptosis at the levels of the Wt SFs | decreased adhesion | migration seems to be increased
anti-TNF: anti-TNF (Infliximab), control of TNFα involvement in actin-cytoskeleton organisation | – | – | – | do not show altered adhesion/migration properties | do not show altered adhesion/migration properties
C=C1[C@@H](C)[C@H]2[C@H](Cc3ccccc3)NC(=O)[C@]23[C@H](OC(C)=O)/C=C/[C@@](C)(O)C(=O)[C@@H](C)C/C=C/[C@H]3[C@@H]1O [Cytochalasin D] | – | enhances apoptosis | – | – | –
